The source of these data is ChEMBL document CHEMBL4251631, “New antiglioma zwitterionic pronucleotides with an FdUMP framework” (Eur J Med Chem, 2018).

For orientation: IC50 means the concentration that gives 50% inhibition. As a reminder, the half-life is how long it takes for the measured level to halve. Higher therefore signals slow decline.

Data set [1] concerns U-118-MG. The data set can be described thus: Cytostatic activity against human U118MG cells assessed as reduction in cell viability after 48 hrs by MTT assay. It counts as functional, cell-based.
Data set [2] can be described thus: Half life in RPMI/FBS cell culture media 9:1 (v/v) at 2 mM by HPLC analysis. Format: physicochemical. Conditions: cattle.
The nature of data set [3]: Selectivity index, ratio of IC50 for human MRC5 cells to IC50 for human U87MG cells. It counts as toxicity. The conditions noted are these: MRC5 cells and U87MG cells, read-out: Ratio IC50.
A short description of data set [4]: Half life in human serum at 2 mM by HPLC analysis. Format: ADME, cell-free.
The test system of data set [5] is MRC5. Description: Cytostatic activity against human MRC5 cells assessed as reduction in cell viability after 48 hrs by MTT assay. It counts as functional, cell-based. The conditions noted are these: MRC5, 48 h. (Tetrazolium assays rely on reduction of a dye to a coloured formazan, in cell work by metabolically active cells.)
Data set [6] is described as follows: Selectivity index, ratio of IC50 for human MRC5 cells to IC50 for human U118MG cells. It counts as toxicity. The conditions noted are these: MRC5 cells and U118MG cells, read-out: Ratio IC50.
Data set [7] has as its system HeLa. Description: Cytostatic activity against human HeLa cells assessed as reduction in cell viability after 48 hrs by MTT assay. It counts as functional, cell-based.
Data set [8] is described as follows: Stability in RPMI cell culture media at 2 mM by HPLC analysis. Format: physicochemical. Conditions: 2000 µM.
In data set [9] the test system is T98G. The data set can be described thus: Cytostatic activity against human T98G cells assessed as reduction in cell viability after 48 hrs by MTT assay. It counts as functional, cell-based.
Data set [10] can be described thus: Selectivity index, ratio of IC50 for human MRC5 cells to IC50 for human T98G cells. It counts as toxicity. The conditions noted are these: MRC5 cells and T98G cells, read-out: Ratio IC50.
Data set [11] deals with Caco-2. The data set can be described thus: Cytostatic activity against human Caco2 cells assessed as reduction in cell viability after 48 hrs by MTT assay. Format: functional, cell-based. Conditions: Caco-2, 48 h.
Data set [12] has as its system U-87 MG. Description: Cytostatic activity against human U87MG cells assessed as reduction in cell viability after 48 hrs by MTT assay. Format: functional, cell-based, U-87MG ATCC.
Data set [13] deals with T47D. The data set can be described thus: Cytostatic activity against human T47D cells assessed as reduction in cell viability after 48 hrs by MTT assay. It counts as functional, cell-based.

`O=c1[nH]c(=O)n([C@H]2C[C@H](O)[C@@H](COP(=O)(O)Oc3cccnc3)O2)cc1F`: the IC50 was determined as 27.5 µM in [1]; 8.5 µM in data set [5]; 0.7 µM in data set [7]; 1200 nM in [9]; 3.39 µM in [11]; 39.8 µM in data set [12]. In addition, in data set [13], the IC50 was 9.35 µM. For the same compound, the results for the half-life at 2000 µM in data set [2] and in [4] were 1000 min and 1190 min, respectively. The selectivity ratio was below 1 in data set [3], below 1 in data set [6] and 7 in data set [10]. Besides, in data set [8], the Stability result is listed as “Stable”.

For `CCCCCCCCCc1ccc(OP(=O)(O)OC[C@H]2O[C@@H](n3cc(F)c(=O)[nH]c3=O)C[C@@H]2OC(=O)c2ccccc2)cc1`, the IC50 in data set [1] turned out to be 11 µM; in [5], 39.9 µM; in data set [7], 40.1 µM; in [9], 6740 nM; in data set [11] it was 20.4 µM; in [12], 6.73 µM. Further, the half-inhibitory concentration (IC50) in [13] stood at 26.7 µM. Besides, the half-life at 2000 µM in data set [2] and in data set [4] was above 7200 min throughout. For the same compound, the selectivity ratio in [3] was found to be 6; in data set [6] it was 4; in [10], 6. The Stability entry in data set [8] was “Stable”.

For the compound `C[N+]1(Cc2ccccc2)C2CCC1CC(OP(=O)([O-])OC[C@H]1O[C@@H](n3cc(F)c(=O)[nH]c3=O)C[C@@H]1OC(=O)c1ccccc1)C2` (stereo partly specified), the half-inhibitory concentration (IC50) in [1] is 66.3 µM; in [5], 62.5 µM; in [7], above 80 µM; in [9], 49900 nM; in data set [11], above 80 µM; in data set [12] it was 35.9 µM. In data set [13], the IC50 is above 80 µM. In addition, the half-life at 2000 µM in data set [2] and in [4] was above 7200 min in each case. Besides, the selectivity ratio was found to be 2 in data set [3], 1 in data set [6] and 1 in [10]. Moreover, the Stability result in data set [8] is “Stable”.

Consider `O=C(O[C@H]1C[C@H](n2cc(F)c(=O)[nH]c2=O)O[C@@H]1COP(=O)(O)Oc1ccc2ncccc2c1)c1ccccc1`, for which the half-maximal inhibitory concentration (IC50) in [1] amounted to 0.79 µM; in data set [5], 1.3 µM; in data set [7] it was 7.3 µM; in [9], 1300 nM; in data set [11] it was 2.46 µM; in data set [12], 0.88 µM. For the same compound, in data set [13], the IC50 is 7.14 µM. Further, the figures for the half-life at 2000 µM in [2] and in data set [4] were 462 min and 990 min, respectively. The selectivity ratio was found to be 1 in data set [3], 2 in data set [6] and 1 in data set [10]. The Stability result in [8] is on record as “Stable”.

As for `O=c1[nH]c(=O)n([C@H]2C[C@H](O)[C@@H](COP(=O)(O)Oc3ccc4ncccc4c3)O2)cc1F`, the concentration for half-maximal inhibition (IC50) was found to be 7.07 µM in [1]; 1.3 µM in data set [5]; 7.3 µM in data set [7]; 1900 nM in data set [9]; 1.4 µM in [11]; 10.7 µM in data set [12]. Also, the IC50 in data set [13] worked out at 8.11 µM. Further, the half-life at 2000 µM in data set [2] is 1560 min; in [4], 1570 min. Further, the selectivity ratio in data set [3], in data set [6] and in data set [10] was below 1 throughout. The Stability entry in data set [8] is reported as “Stable”.

In the case of `CCOC(=O)C[n+]1cccc(O)c1`, the half-inhibitory concentration (IC50) is above 200 µM in [1], above 200 µM in [5], above 200000 nM in data set [9] and above 200 µM in data set [12].

In the case of `Oc1cccnc1`, the IC50 in [1] is above 500 µM; in data set [5] it was above 500 µM; in data set [9] it was above 500000 nM; in [12], above 500 µM.

In the case of `O=C(O[C@H]1C[C@H](n2cc(F)c(=O)[nH]c2=O)O[C@@H]1COP(=O)([O-])Oc1ccc[n+](Cc2ccccc2)c1)c1ccccc1`, the IC50 in [1] stood at 1.47 µM; in data set [5], 38.5 µM; in data set [7] it was 0.53 µM; in [9], 2600 nM; in [11], 0.43 µM; in data set [12] it was 0.66 µM. Besides, the concentration for half-maximal inhibition (IC50) in data set [13] was found to be 3.43 µM. The half-life at 2000 µM in data set [2] is 648 min; in data set [4] it was 864 min. Moreover, the selectivity ratio in data set [3] was 58; in data set [6], 26; in data set [10], 15. Also, the Stability entry in [8] is reported as “Stable”.

Consider `CCOC(=O)C[n+]1cccc2cc(O)ccc21`, for which the IC50 was above 200 µM in [1], 162 µM in data set [5], above 200000 nM in data set [9] and above 200 µM in [12].

Take `O=C(O[C@H]1C[C@H](n2cc(F)c(=O)[nH]c2=O)O[C@@H]1COP(=O)(O)Oc1ccccc1)c1ccccc1`: the half-inhibitory concentration (IC50) in [1] came to 0.97 µM; in data set [5], 1.27 µM; in data set [7], 5.86 µM; in data set [9] it was 810 nM; in [11], 1.02 µM; in data set [12], 0.8 µM. Moreover, the IC50 in [13] is 6.88 µM. In addition, the half-life at 2000 µM was 396 min in data set [2] and 306 min in [4]. For the same compound, the results for the selectivity ratio in [3], in [6] and in [10] were 2, 1 and 2, respectively. Moreover, the Stability entry in [8] was “Stable”.

Consider `Oc1ccc[n+](Cc2ccccc2)c1`, for which the 50% inhibitory concentration (IC50) in data set [1] was above 200 µM; in data set [5], above 200 µM; in data set [9], above 200000 nM; in data set [12], above 200 µM.

As for `CCCCCCCCCC[n+]1cccc(OP(=O)([O-])OC[C@H]2O[C@@H](n3cc(F)c(=O)[nH]c3=O)C[C@@H]2OC(=O)c2ccccc2)c1`, the 50% inhibitory concentration (IC50) in data set [1] worked out at 0.32 µM; in data set [5] it was 14.1 µM; in data set [7], 1.2 µM; in data set [9], 400 nM; in data set [11], 12.9 µM; in data set [12], 0.67 µM. Further, the IC50 in [13] was 8.73 µM. The half-life at 2000 µM in data set [2] was 990 min; in [4], 498 min. Besides, the results for the selectivity ratio in data set [3], in data set [6] and in data set [10] were 21, 44 and 35, respectively. Further, the Stability entry in [8] is listed as “Stable”.

As to `O=c1[nH]c(=O)n([C@H]2C[C@H](O)[C@@H](COP(=O)(O)Oc3ccccc3)O2)cc1F`, the half-inhibitory concentration (IC50) is 14.6 µM in [1]; 36.7 µM in data set [5]; 15.2 µM in [7]; 32200 nM in data set [9]; 26.6 µM in data set [11]; 33.7 µM in data set [12]. Besides, the half-maximal inhibitory concentration (IC50) in [13] worked out at 13.4 µM. Moreover, the values for the half-life at 2000 µM in [2] and in data set [4] were 1680 min and 3140 min, respectively. Moreover, the figures for the selectivity ratio in data set [3], in data set [6] and in [10] were 1, 3 and 1, respectively. Further, in [8], the Stability entry is on record as “Stable”.

Turning to `C[N+]1(C)CCC(OP(=O)([O-])OC[C@H]2O[C@@H](n3cc(F)c(=O)[nH]c3=O)C[C@@H]2OC(=O)c2ccccc2)CC1`, the IC50 came out at 4.42 µM in [1]; 8.3 µM in data set [5]; 27.2 µM in data set [7]; 6700 nM in data set [9]; 15.7 µM in data set [11]; 1.28 µM in data set [12]. Moreover, the IC50 in data set [13] is 11.9 µM. The half-life at 2000 µM in data set [2] and in [4] was above 7200 min throughout. Also, the results for the selectivity ratio in [3], in data set [6] and in [10] were 7, 2 and 1, respectively. In addition, the Stability result in data set [8] was “Stable”.

Regarding `C[N+](C)(CCOP(=O)([O-])OC[C@H]1O[C@@H](n2cc(F)c(=O)[nH]c2=O)C[C@@H]1OC(=O)c1ccccc1)Cc1ccccc1`, the IC50 in [1] was found to be 3.69 µM; in data set [5], 0.6 µM; in data set [7], 1.5 µM; in [9], 2000 nM; in data set [11] it was 11.7 µM; in [12], 0.61 µM. In addition, the IC50 in data set [13] came out at 33 µM. Further, the half-life at 2000 µM in data set [2] was 3240 min; in data set [4], 5780 min. Moreover, the values for the selectivity ratio in data set [3], in data set [6] and in [10] were 1, below 1 and below 1, respectively. Further, in data set [8], the Stability entry is “Stable”.

Turning to `O=C(O[C@H]1C[C@H](n2cc(F)c(=O)[nH]c2=O)O[C@@H]1COP(=O)(O)Oc1cccnc1)c1ccccc1`, the half-maximal inhibitory concentration (IC50) in data set [1] was 0.92 µM; in [5], 15.6 µM; in data set [7], 6.9 µM; in data set [9] it was 1300 nM; in data set [11], 2.5 µM; in data set [12], 0.71 µM. For the same compound, the IC50 in [13] was found to be 14.4 µM. For the same compound, the half-life at 2000 µM in data set [2] is 402 min; in data set [4], 1070 min. Also, the selectivity ratio is 22 in data set [3], 17 in [6] and 12 in data set [10]. Besides, the Stability result in [8] is on record as “Stable”.

For `CCCCCCCCCC[n+]1cccc(O)c1`, the concentration for half-maximal inhibition (IC50) in [1] is 125 µM; in data set [5] it was 126 µM; in data set [9], 55600 nM; in data set [12], 158 µM.
